For one compound, Ki results are on record in BindingDB's records for doi:10.1111/j.1527-3458.2004.tb00024.x (Karolinska Institutet, 2004).

This experiment has as its target T1, D1 dopamine receptor (Macaca fascicularis, UniProt Q5I6B7).
T1 sequence (Q5I6B7 whole entry): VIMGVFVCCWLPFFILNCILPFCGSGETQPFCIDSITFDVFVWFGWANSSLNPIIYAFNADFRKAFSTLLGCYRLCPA

As to `Oc1cc2c(cc1O)C1c3ccccc3CNC1CC2` (stereo unspecified) [Dihydrexidine, DHX], the Ki (in general, the equilibrium dissociation constant of an inhibitor or competing ligand from its target) came out at 20.2 nM.
